Source: ChEMBL document CHEMBL3352097, “Small molecule inhibitors targeting activator protein 1 (AP-1)” (J Med Chem, 2014)
Bridge positions count the residues as written; N and C are the ends. Peptide text beside a SMILES is read from it.

Key:
[1] = target: Nuclear factor NF-kappa-B complex (Homo sapiens, UniProt Q00653+P19838+Q04206); test: Inhibition of NF-kappaB-mediated transcriptional activation in human Jurkat cells by luciferase reporter gene assay; type: cell-based
Transcription factor Jun [2] = target: T1, Transcription factor Jun (Homo sapiens, UniProt P05412); test: Inhibition of AP-1-mediated transcriptional activation in human Jurkat cells by luciferase reporter gene assay; type: cell-based
Transcription factor Jun [3] = target: T1, Transcription factor Jun; test: Inhibition of AP-1 bZIP domain DNA binding activity (unknown origin) by ELISA
Transcription factor Jun [4] = target: T1, Transcription factor Jun; test: Inhibition of AP-1 (unknown origin) expressed in TPA-stimulated mouse NIH3T3 cells by luciferase reporter gene assay; type: cell-based
Transcription factor Jun [5] = target: T1, Transcription factor Jun; test: Inhibition of AP-1-mediated transcriptional activation in human HeLa cells at 10 ug/ml; type: cell-based
Transcription factor Jun [6] = target: T1, Transcription factor Jun; test: Inhibition of AP-1-mediated transcriptional activation in human HeLa cells at 1 ug/ml; type: cell-based
[7] = target: Transcription factor Jun (Mus musculus) (UniProt P05627); test: Inhibition of AP-1-mediated transcriptional activation in lipopolysaccharide-stimulated mouse RAW 264.7 cells assessed ratio of luciferase activity normalized to Renilla luciferase activity by luciferase reporter gene assay
Gallus gallus = species: Gallus gallus; test: Antiangiogenic activity in chicken embryo assessed as inhibition of neovascularization at 10 ug; type: functional
Transcription factor Jun [8] = target: T1, Transcription factor Jun; test: Inhibition of AP-1 (unknown origin) by FRET assay
Transcription factor AP1 [9] = target: T2, Transcription factor AP1 (Homo sapiens, UniProt P01100+P05412); test: Inhibition of Fos-Jun dimer formation (unknown origin) by EMSA method; type: protein-complex assay
Transcription factor AP1 [10] = target: T2, Transcription factor AP1; test: Inhibition of Fos-Jun dimer formation (unknown origin); type: protein-complex assay
Transcription factor Jun [11] = target: T1, Transcription factor Jun; test: Inhibition of AP-1-mediated transcriptional activation in HEK293 cells by luciferase reporter gene assay; type: cell-based
Transcription factor Jun [12] = target: T1, Transcription factor Jun; test: Inhibition of UVB-induced AP-1 activation (unknown origin) by cell-based assay

T1 sequence (P05412 whole entry, the tested form may be a part): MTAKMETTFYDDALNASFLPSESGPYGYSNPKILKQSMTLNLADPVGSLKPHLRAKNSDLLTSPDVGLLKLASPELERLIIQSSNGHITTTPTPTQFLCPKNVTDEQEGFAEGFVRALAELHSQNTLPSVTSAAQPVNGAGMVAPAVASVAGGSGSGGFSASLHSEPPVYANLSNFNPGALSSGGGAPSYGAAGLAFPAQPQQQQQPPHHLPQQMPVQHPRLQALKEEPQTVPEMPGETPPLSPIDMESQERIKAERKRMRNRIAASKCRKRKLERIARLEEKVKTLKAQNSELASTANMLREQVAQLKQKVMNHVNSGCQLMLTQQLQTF
Chain of Transcription factor Jun (Mus musculus) (P05627 whole entry): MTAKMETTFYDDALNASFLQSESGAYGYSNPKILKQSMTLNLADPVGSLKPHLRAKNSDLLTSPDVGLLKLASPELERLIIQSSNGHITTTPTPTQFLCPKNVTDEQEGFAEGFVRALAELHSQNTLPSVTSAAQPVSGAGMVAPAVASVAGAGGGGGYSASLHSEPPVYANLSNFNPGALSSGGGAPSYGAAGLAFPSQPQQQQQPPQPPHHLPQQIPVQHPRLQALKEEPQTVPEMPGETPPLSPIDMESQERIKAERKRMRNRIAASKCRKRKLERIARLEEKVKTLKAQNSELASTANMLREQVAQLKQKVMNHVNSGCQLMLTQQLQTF
Chain of Nuclear factor NF-kappa-B complex (P19838 1-433 limits assumed): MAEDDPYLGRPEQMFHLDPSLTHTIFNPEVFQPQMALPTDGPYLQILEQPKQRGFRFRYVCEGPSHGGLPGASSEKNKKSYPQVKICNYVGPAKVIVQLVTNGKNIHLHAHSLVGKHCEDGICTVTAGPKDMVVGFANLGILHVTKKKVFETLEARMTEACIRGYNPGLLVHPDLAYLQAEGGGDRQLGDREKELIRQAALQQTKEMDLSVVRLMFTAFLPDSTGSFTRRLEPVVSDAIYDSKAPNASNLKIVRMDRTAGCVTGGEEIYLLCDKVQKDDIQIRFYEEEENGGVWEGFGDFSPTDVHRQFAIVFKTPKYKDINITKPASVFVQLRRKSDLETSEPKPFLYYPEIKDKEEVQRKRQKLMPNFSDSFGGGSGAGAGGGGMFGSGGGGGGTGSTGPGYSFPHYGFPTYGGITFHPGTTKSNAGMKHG
Chain of Nuclear factor NF-kappa-B complex (Q00653 1-454 limits assumed): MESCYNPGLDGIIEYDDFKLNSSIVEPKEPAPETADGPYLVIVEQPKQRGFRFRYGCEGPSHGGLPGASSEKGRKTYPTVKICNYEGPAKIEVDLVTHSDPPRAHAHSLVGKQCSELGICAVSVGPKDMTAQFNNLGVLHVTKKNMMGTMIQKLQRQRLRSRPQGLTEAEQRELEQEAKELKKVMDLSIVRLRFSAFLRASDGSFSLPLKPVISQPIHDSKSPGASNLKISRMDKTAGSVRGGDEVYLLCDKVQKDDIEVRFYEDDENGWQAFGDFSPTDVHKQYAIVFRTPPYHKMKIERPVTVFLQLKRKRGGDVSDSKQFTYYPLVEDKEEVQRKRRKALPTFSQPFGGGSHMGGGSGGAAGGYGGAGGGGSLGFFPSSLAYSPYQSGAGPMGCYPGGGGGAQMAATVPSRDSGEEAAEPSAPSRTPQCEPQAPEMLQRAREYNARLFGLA
Chain of Nuclear factor NF-kappa-B complex (Q04206 whole entry): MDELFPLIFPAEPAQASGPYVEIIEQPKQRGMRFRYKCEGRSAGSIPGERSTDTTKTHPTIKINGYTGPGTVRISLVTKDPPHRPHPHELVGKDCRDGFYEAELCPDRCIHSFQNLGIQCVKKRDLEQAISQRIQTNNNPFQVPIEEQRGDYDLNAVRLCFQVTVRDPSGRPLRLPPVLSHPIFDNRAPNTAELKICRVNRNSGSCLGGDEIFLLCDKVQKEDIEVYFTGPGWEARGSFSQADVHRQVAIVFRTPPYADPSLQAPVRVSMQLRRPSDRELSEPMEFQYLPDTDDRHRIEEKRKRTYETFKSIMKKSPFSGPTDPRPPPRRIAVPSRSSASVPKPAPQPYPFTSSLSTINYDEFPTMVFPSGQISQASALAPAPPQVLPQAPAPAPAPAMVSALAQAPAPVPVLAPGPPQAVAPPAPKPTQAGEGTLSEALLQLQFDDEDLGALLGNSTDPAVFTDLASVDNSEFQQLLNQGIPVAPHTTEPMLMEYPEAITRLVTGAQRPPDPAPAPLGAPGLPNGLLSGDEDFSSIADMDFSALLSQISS
T2 sequence (P05412 whole entry): as the sequence (P05412 whole entry, the tested form may be a part) above
T2 sequence (P01100 whole entry): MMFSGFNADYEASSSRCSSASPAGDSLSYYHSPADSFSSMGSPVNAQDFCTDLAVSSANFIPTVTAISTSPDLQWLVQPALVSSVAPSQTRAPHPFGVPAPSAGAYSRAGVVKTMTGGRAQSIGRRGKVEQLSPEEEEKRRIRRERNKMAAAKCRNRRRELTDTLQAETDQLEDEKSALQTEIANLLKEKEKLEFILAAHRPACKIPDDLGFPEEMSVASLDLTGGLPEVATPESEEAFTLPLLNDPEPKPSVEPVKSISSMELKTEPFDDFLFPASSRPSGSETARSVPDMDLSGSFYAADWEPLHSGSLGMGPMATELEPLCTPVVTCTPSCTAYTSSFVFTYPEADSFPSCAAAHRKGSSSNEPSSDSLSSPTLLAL

O=C(Nc1cc(C(F)(F)F)cc(C(F)(F)F)c1)c1cnc(Cl)nc1C(F)(F)F
IC50 [1]: 50 nM | IC50 (Transcription factor Jun [2]): 50 nM

O=C(O)CCc1cc(C(=O)c2ccc(OC3CCCC3)cc2O)ccc1OCc1ccc2c(O)noc2c1
IC50 (Transcription factor Jun [3]): 10000 nM | IC50 (Transcription factor Jun [4]): 10000 nM

O=C(Nc1cc(C(F)(F)F)cc(C(F)(F)F)c1)c1cc(Br)ccc1O
inhibition (Transcription factor Jun [5]): 91.2% | inhibition (Transcription factor Jun [6]): 48.4%

CC1=CC(=O)N(Nc2ncc(C(=O)c3ccccc3)c(C(F)(F)F)n2)C1=O
IC50 (Transcription factor Jun [2]): 98 nM

CCOC(=O)c1cnc(NN2C(=O)C=C(C)C2=O)nc1C(F)(F)F
IC50 (Transcription factor Jun [2]): 2000 nM

O=C(Nc1cc(Cl)cc(Cl)c1)c1cc(Br)ccc1O
inhibition (Transcription factor Jun [5]): 83.8% | inhibition (Transcription factor Jun [6]): 39.3%

O=C(Nc1cc(C(F)(F)F)cc(C(F)(F)F)c1)c1cnc(F)nc1C(F)(F)F
IC50 [1]: 400 nM

CCOC(=O)c1cnc(NN2C(=O)C=C(C)C2=O)nc1-c1ccc(C)s1
IC50 (Transcription factor Jun [2]): 45 nM

C[C@@]12CC[C@@H]3[C@@](CC[C@H]4[C@@]3(C)[C@@H](O)CC[C@@]4(C)C(=O)O)(COC1=O)C2
Ratio [7]: 2.66

O=C(Nc1cc(C(F)(F)F)cc(C(F)(F)F)c1)c1cnc(Cl)nc1-c1ccccc1
IC50 [1]: 400 nM | IC50 (Transcription factor Jun [2]): 400 nM

CC1=CC(=O)N(Nc2ncc(-c3coc(C)n3)c(-c3cccs3)n2)C1=O
IC50 (Transcription factor Jun [2]): 760 nM

COc1cc(/C=C/C(=O)/C=C(O)/C=C/c2cc(OC)c(O)c([N+](=O)[O-])c2)cc([N+](=O)[O-])c1O
inhibition (INH) (Gallus gallus): 68%

CC[C@](C)(O)C(=O)O[C@H]1C(=O)O[C@@H]2C[C@H]3C(C)=CC(=O)[C@@H](O)[C@]3(C)[C@H]3[C@@]4(O)OC[C@]32[C@@H]1[C@@H](C)[C@H]4O [GLAUCARUBINONE]
EC50 (Transcription factor Jun [8]): 1490 nM

CCOC(=O)c1cnc(N(C)N2C(=O)C=C(C)C2=O)nc1C(F)(F)F
IC50 (Transcription factor Jun [2]): 300 nM

C[C@@]12CCC[C@@](C)(C(=O)O)[C@H]1CC[C@]13CC(=O)O[C@](C)(C1)[C@H](O)C[C@H]32
Ratio [7]: 2.73

O=C1Nc2cc(C(F)(F)F)ccc2Nc2nc(Cl)ncc21
IC50 (Transcription factor Jun [2]): 10000 nM

O=C(Nc1cc(C(F)(F)F)cc(C(F)(F)F)c1)c1ccc(Cl)nn1
IC50 [1]: 1700 nM | IC50 (Transcription factor Jun [2]): 1700 nM

C[C@@]12CC[C@@H]3[C@@](CC[C@H]4[C@@]3(C)CCC[C@@]4(C)C(=O)O)(CC(=O)O1)C2
Ratio [7]: 2.38

CC1=CC(=O)N(Nc2ncc(C(=O)OC(C)(C)C)c(C(F)(F)F)n2)C1=O
IC50 (Transcription factor Jun [2]): 210 nM

CC1(C)CC[C@]2(C(=O)O)CC[C@]3(C)C(=CC[C@@H]4[C@@]5(C)CC[C@H](O[C@@H]6O[C@H](C(=O)O)[C@@H](O)[C@H](O[C@@H]7OC[C@H](O)[C@H](O)[C@H]7O)[C@H]6O)C(C)(C)[C@@H]5CC[C@]43C)[C@@H]2C1
IC50 (Transcription factor AP1 [9]): 130000 nM

COc1cc(CC(C)C(C)Cc2ccc(O)c(OC)c2)ccc1O (stereo not given) [DIHYDROGUAIARETIC ACID]
IC50 (Transcription factor AP1 [10]): 210 nM

C[C@@]12CC[C@@H]3[C@@](CC[C@H]4[C@@]3(C)CCC[C@@]4(C)C(=O)O)(COC1=O)C2
Ratio [7]: 1.88

Cc1nc(Nc2ccc(Cl)cc2)sc1-c1nc2ccccc2c(=O)n1-c1ccc(Cl)cc1
IC50 (Transcription factor Jun [11]): 1200 nM

O=C(Nc1cc(Cl)cc(Cl)c1)c1cc(I)ccc1O
inhibition (Transcription factor Jun [5]): 75.4%

CC1=C[C@@]2(CC#N)CC[C@H]3[C@@](C)(CCC[C@@]3(C)C(=O)O)[C@@H]2CC1
Ratio [7]: 2.85

CCOC(=O)c1cnc(NN2C(=O)C=C(C)C2=O)nc1CC
IC50 (Transcription factor Jun [2]): 400 nM

CC(=O)N[C@H]1CSSC[C@@H](C(N)=O)NC(=O)CNC(=O)[C@H](CC(=O)O)NC(=O)[C@H](C)NC(=O)[C@H](CC(C)C)NC(=O)[C@H](CC(=O)O)NC(=O)[C@H](CC(C)C)NC(=O)[C@H](CCC(N)=O)NC(=O)CNC1=O (Ac-CGQLDLADGC-NH2; disulfide 1-10)
IC50 (Transcription factor Jun [3]): 64000 nM

C[C@@]12CC[C@@H]3[C@@](C/C1=N\O)(C2)[C@H](O)C[C@H]1[C@@]3(C)[C@@H](O)CC[C@@]1(C)C(=O)O
Ratio [7]: 2.69

CCOC(=O)c1cnc(-c2ccccc2)nc1NN1C(=O)C=C(C)C1=O
IC50 [1]: 100 nM | IC50 (Transcription factor Jun [2]): 100 nM

Cc1cc(C(=O)Nc2ccc(C(F)(F)F)cc2C(F)(F)F)nc(Cl)n1
IC50 (Transcription factor Jun [2]): > 10000 nM

COC(=O)C1=CO[C@@H](O[C@@H]2O[C@H](CO)[C@@H](O)[C@H](O)[C@H]2O)[C@H]2[C@H]1C(C)=C[C@@]2(O)C(=O)O/C=C(\C(=O)O)c1ccc(O)c(OC)c1
IC50 (Transcription factor Jun [12]): 69600 nM

CCc1nc(NN2C(=O)C=C(C)C2=O)ncc1-c1coc(C)n1
IC50 (Transcription factor Jun [2]): 830 nM

C[C@@]12CCC[C@@](C)(C(=O)O)[C@H]1CC[C@@]13CC(=O)O[C@@](CO)(CC[C@H]12)C3
Ratio [7]: 2.58
